In ChEMBL document CHEMBL5223122, “Discovery and preclinical evaluations of GST-HG131, a novel HBV antigen inhibitor for the treatment of chronic hepatitis B infection” (Bioorg Med Chem Lett, 2022):
Activity calls are given as the source filed them. No cut-off for these calls is given here.

How the values were obtained:
Hepatitis B virus [1] = assay: In vivo antiviral activity against AAV encapsidated HBV infected in mouse assessed as reduction in HBV DNA at 10 mg/kg, po QD for 4 weeks in presence of tenofovir disoproxil fumarate by qPCR method; format: functional, organism-based
CYP2D6 = CYP2D6 (Homo sapiens, UniProt P10635); assay: Inhibition of CYP2D6 (unknown origin); format: ADME
Chain of CYP2D6 (P10635 whole entry): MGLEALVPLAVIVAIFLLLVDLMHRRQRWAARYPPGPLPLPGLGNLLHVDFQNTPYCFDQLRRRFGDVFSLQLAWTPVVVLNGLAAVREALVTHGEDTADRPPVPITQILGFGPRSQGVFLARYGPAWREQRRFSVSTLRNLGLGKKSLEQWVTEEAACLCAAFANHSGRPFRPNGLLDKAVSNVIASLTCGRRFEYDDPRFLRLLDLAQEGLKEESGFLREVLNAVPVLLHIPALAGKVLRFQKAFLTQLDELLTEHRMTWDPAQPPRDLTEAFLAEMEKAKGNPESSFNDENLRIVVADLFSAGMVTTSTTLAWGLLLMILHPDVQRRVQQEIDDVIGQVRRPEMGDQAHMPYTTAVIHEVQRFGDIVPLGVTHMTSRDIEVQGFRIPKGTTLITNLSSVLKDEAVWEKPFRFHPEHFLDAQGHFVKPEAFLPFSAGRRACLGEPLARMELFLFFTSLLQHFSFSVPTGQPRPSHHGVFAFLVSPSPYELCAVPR

CYP2C9 = CYP2C9 (Homo sapiens, UniProt P11712); assay: Inhibition of CYP2C9 (unknown origin); format: ADME
Chain of CYP2C9 (P11712 whole entry): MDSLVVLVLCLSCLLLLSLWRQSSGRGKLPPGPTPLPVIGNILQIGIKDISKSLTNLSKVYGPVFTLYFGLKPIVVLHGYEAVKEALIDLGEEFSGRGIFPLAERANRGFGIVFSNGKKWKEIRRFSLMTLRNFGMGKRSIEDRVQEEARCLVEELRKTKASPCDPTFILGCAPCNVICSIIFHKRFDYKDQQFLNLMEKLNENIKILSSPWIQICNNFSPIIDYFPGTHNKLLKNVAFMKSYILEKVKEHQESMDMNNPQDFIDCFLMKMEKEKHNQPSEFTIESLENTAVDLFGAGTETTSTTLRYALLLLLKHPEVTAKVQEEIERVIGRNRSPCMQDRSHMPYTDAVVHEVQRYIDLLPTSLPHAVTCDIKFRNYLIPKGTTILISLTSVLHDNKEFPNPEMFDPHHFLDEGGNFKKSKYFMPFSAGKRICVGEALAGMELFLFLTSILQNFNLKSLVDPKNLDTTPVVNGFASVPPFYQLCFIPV

Hepatitis B virus [2] = assay: In vivo antiviral activity against AAV encapsidated HBV infected in mouse assessed as reduction in HBsAg level at 3 to 10 mg/kg, po QD for 4 weeks by ELISA; format: functional, organism-based; conditions: dose 3-10 mg/kg
[3] = Apparent permeability across apical to basolateral side in human Caco-2 cells; format: ADME, cell-based
[4] = Cmax in C57BL/6 mouse at 2 mg/kg, po; format: ADME, organism-based; parameters: dose 2 mg/kg, route po; conditions: in vivo
Hepatitis B virus [5] = assay: Antiviral activity against HBV infected in human HepG2.2.15 cells assessed as reduction of 3.5 Kb HBV RNA level at 0.23 to 500 nM by Northern blot anlaysis; format: functional, organism-based; conditions: dose 0.23-500 nM
Hepatitis B virus [6] = assay: In vivo antiviral activity against AAV encapsidated HBV infected in mouse assessed as reduction in HBeAg level at 3 to 10 mg/kg, po QD for 4 weeks by ELISA; format: functional, organism-based; conditions: dose 3-10 mg/kg
[7] = Apparent permeability across basolateral to apical side in human Caco-2 cells; format: ADME, cell-based
[8] = Oral bioavailability in Beagle dog at 3 mg/kg; format: ADME, organism-based, Canis lupus familiaris; conditions: in vivo
[9] = Half life in Beagle dog at 1 mg/kg, iv; format: ADME, organism-based, Canis lupus familiaris; conditions: in vivo
Hepatitis B virus [10] = assay: In vivo antiviral activity against AAV encapsidated HBV infected in mouse assessed as reduction in HBeAg level at 10 mg/kg, po QD for 4 weeks in presence of tenofovir disoproxil fumarate by ELISA; format: functional, organism-based
Cytochrome P450 3A4 = Cytochrome P450 3A4 (Homo sapiens, UniProt P08684); assay: Induction of CYP3A4 (unknown origin); format: ADME
Chain of Cytochrome P450 3A4 (P08684 whole entry): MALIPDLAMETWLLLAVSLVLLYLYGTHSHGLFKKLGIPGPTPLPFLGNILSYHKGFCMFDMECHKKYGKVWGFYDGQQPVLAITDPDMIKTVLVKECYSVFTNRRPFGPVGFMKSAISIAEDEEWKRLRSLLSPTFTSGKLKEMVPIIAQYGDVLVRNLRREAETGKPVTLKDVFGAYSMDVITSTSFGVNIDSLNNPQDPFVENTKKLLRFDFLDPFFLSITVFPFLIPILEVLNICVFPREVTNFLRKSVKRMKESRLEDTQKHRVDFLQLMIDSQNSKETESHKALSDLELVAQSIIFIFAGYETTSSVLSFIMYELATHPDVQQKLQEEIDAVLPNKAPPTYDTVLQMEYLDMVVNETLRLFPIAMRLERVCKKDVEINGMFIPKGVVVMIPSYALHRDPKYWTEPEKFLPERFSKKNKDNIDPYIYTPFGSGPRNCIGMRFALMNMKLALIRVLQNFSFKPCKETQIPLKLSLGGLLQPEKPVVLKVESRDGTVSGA

[11] = Half life in C57BL/6 mouse at 1 mg/kg, iv; format: ADME, organism-based; conditions: in vivo
[12] = Cmax in Beagle dog at 3 mg/kg, po; format: ADME, organism-based, Canis lupus familiaris; parameters: dose 3 mg/kg, route po; conditions: in vivo
[13] = Toxicity in rat assessed as organ abnormality at 100 to 300 mg/kg, po QD for 14 days; format: organism-based; conditions: in vivo, 336 h, dose 100-300 mg/kg, time 14 day
[14] = Volume of distribution in steady state in Sprague-Dawley rat at 1 mg/kg, iv; format: ADME, organism-based; conditions: in vivo, read-out: Vdss
Hepatitis B virus [15] = assay: Antiviral activity against HBV infected in human primary hepatocytes assessed as reduction on HBsAg level by ELISA; format: functional, organism-based; conditions: Hepatocyte
[16] = Half life in Sprague-Dawley rat at 1 mg/kg, iv; format: ADME, organism-based; conditions: in vivo
Hepatitis B virus [17] = assay: Antiviral activity against HBV infected in human HepG2.2.15 cells assessed as reduction of 2.4/2.1 Kb HBV RNA level at 500 nM incubated for 4 to 48 hrs by Northern blot anlaysis; format: functional, organism-based; conditions: time 4-48 hrs, TDE = time-dependent effect
[18] = Volume of distribution in steady state in C57BL/6 mouse at 1 mg/kg, iv; format: ADME, organism-based; conditions: in vivo, read-out: Vdss
[19] = Clearance in Sprague-Dawley rat at 1 mg/kg, iv; format: ADME, organism-based; conditions: in vivo
[20] = Cmax in Sprague-Dawley rat at 2 mg/kg, po; format: ADME, organism-based; parameters: dose 2 mg/kg, route po; conditions: in vivo
[21] = Glutathione reactivity assessed as GSH adduct formation; format: ADME
Hepatitis B virus [22] = assay: Antiviral activity against HBV infected in human HepG2.2.15 cells assessed as reduction of 2.4/2.1 Kb HBV RNA level at 0.23 to 500 nM by Northern blot anlaysis; format: functional, organism-based; conditions: dose 0.23-500 nM
[23] = AUC (0-last) in Beagle dog at 3 mg/kg, po; format: ADME, organism-based, Canis lupus familiaris; parameters: dose 3 mg/kg, route po; conditions: in vivo
Hepatitis B virus [24] = assay: Antiviral activity against HBV infected in human HepG2.2.15 assessed as HBV DNA reduction by qPCR method; format: functional, organism-based
[25] = molecular target: Voltage-gated inwardly rectifying potassium channel KCNH2 (Homo sapiens, UniProt Q12809); assay: Inhibition of human ERG; format: toxicity
Chain of Voltage-gated inwardly rectifying potassium channel KCNH2 (Q12809 whole entry): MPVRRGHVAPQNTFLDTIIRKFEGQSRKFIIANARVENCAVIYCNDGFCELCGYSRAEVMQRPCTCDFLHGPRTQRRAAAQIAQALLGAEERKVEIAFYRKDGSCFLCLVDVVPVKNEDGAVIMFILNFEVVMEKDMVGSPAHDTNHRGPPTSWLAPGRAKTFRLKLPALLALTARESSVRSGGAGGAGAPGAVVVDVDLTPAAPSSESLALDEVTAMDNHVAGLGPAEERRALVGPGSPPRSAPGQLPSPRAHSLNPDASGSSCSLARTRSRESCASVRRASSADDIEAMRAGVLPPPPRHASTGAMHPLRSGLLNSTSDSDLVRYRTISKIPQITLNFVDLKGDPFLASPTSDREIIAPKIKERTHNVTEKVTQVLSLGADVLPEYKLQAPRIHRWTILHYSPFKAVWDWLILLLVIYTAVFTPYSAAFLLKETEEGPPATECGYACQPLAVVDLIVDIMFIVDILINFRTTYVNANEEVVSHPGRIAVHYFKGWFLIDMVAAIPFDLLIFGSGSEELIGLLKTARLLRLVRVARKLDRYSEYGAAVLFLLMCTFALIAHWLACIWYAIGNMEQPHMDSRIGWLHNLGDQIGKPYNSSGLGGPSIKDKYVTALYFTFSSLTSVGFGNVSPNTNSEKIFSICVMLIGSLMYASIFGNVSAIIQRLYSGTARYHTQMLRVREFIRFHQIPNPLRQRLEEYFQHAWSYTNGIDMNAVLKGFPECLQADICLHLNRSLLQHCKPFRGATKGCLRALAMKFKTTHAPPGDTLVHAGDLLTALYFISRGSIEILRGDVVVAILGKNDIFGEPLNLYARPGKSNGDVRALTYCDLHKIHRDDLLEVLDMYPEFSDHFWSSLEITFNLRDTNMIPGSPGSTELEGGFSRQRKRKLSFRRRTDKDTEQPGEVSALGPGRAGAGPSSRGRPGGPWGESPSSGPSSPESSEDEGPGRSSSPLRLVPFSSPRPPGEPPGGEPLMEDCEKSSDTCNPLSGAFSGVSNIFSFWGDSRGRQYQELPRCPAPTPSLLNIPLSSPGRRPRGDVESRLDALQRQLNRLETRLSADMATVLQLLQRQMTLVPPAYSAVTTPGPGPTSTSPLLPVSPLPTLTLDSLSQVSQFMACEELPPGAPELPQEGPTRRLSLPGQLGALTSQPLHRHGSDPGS

Hepatitis B virus [26] = assay: Antiviral activity against HBV infected in human primary hepatocytes assessed as HBV DNA reduction at 20 uM by qPCR method; format: functional, Primary hepatocyte; parameters: scale not given: the % may be the effect or the level left
CYP1A2 = molecular target: T1, CYP1A2 (Homo sapiens, UniProt P05177); assay: Inhibition of CYP1A2 (unknown origin); format: ADME
T1 sequence (P05177 whole entry): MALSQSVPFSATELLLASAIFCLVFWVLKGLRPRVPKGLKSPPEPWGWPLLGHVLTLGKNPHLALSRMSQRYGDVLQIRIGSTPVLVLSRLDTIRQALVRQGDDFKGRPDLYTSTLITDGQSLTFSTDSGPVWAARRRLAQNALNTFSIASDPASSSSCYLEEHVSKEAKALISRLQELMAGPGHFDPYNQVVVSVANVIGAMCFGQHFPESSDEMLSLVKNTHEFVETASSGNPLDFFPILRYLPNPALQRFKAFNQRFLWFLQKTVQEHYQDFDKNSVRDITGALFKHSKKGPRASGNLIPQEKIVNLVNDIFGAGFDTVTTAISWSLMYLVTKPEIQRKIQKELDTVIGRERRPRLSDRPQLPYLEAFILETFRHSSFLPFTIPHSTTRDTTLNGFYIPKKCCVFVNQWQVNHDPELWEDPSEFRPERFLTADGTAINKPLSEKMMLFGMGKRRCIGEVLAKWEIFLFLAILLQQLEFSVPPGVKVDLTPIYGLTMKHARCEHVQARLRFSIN

Hepatitis B virus [27] = assay: Antiviral activity against HBV infected in human primary hepatocytes assessed as reduction on HBeAg level by ELISA; format: functional, organism-based; conditions: Hepatocyte
Hepatitis B virus [28] = assay: Antiviral activity against HBV infected in human HepG2.2.15 cells assessed as maximum efficacy causing reduction of 3.5 Kb HBV RNA level incubated for 16 hrs by Northern blot anlaysis; format: functional, organism-based
[29] = Toxicity in rat assessed as rectal temperature at 300 to 1000 mg/kg, po measured after 1 hrs; format: organism-based; conditions: in vivo, dose 300-1000 mg/kg
[30] = Oral bioavailability in Sprague-Dawley rat at 2 mg/kg; format: ADME, organism-based; conditions: in vivo
[31] = Clearance in C57BL/6 mouse at 1 mg/kg, iv; format: ADME, organism-based; conditions: in vivo
Hepatitis B virus [32] = assay: Antiviral activity against HBV infected in human HepG2.2.15 assessed as reduction on HBsAg level by ELISA; format: functional, organism-based
Hepatitis B virus [33] = assay: Antiviral activity against HBV infected in human HepG2.2.15 cells assessed as reduction of 3.5 Kb HBV RNA level at 500 nM incubated for 4 to 48 hrs by Northern blot anlaysis; format: functional, organism-based; conditions: time 4-48 hrs, TDE = time-dependent effect
[34] = Microsomal stability in rat liver microsomes assessed as intrinsic clearance measured per mg of protein; format: ADME, Microsome; conditions: read-out: CLH
Hepatitis B virus [35] = assay: In vivo antiviral activity against AAV encapsidated HBV infected in mouse assessed as reduction in HBV DNA at 3 to 10 mg/kg, po QD for 4 weeks by qPCR method; format: functional, organism-based; conditions: dose 3-10 mg/kg
[36] = Protein binding in human plasma assessed as unbound fraction; format: ADME, cell-free
CYP2C19 = CYP2C19 (Homo sapiens, UniProt P33261); assay: Inhibition of CYP2C19 (unknown origin); format: ADME
Chain of CYP2C19 (P33261 whole entry): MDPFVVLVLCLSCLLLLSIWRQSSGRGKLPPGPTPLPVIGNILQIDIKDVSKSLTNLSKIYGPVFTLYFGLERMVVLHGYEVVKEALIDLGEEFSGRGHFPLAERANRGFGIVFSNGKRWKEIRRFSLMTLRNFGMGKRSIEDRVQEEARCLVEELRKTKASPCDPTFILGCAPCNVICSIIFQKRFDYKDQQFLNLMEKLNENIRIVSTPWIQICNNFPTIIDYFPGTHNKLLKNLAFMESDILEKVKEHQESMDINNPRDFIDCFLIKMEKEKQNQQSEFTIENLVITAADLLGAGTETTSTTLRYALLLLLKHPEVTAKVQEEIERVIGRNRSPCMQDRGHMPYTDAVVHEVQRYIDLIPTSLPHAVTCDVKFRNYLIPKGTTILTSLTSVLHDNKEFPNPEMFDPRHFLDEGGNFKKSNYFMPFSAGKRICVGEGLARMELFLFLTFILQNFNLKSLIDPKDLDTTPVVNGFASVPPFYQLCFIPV

[37] = Toxicity in mouse infected with AAV encapsidated HBV assessed as change in body weight at 3 to 10 mg/kg, po QD for 4 weeks; format: organism-based; conditions: in vivo, 672 h, dose 3-10 mg/kg
[38] = Microsomal stability in dog liver microsomes assessed as intrinsic clearance measured per mg of protein; format: ADME, Canis lupus familiaris, Microsome; conditions: read-out: CLH
[39] = Volume of distribution in steady state in Beagle dog at 1 mg/kg, iv; format: ADME, organism-based, Canis lupus familiaris; conditions: in vivo, read-out: Vdss
[40] = Efflux ratio of apparent permeability from basolateral to apical side over apical to basolateral side in human Caco-2 cells; format: ADME, cell-based
CYP3A4 = CYP3A4 (Homo sapiens, UniProt P08684); assay: Inhibition of CYP3A4 (unknown origin); format: ADME
Chain of CYP3A4 (P08684 whole entry): as the sequence (P08684 whole entry) above

[41] = Microsomal stability in mouse liver microsomes assessed as intrinsic clearance measured per mg of protein; format: ADME, Microsome; conditions: read-out: CLH
[42] = Microsomal stability in cynomolgus monkey liver microsomes assessed as intrinsic clearance measured per mg of protein; format: ADME, Macaca fascicularis, Microsome; conditions: read-out: CLH
Hepatitis B virus [43] = assay: In vivo antiviral activity against AAV encapsidated HBV infected in mouse assessed as reduction in HBsAg level at 10 mg/kg, po QD for 4 weeks in presence of tenofovir disoproxil fumarate by ELISA; format: functional, organism-based
[44] = Toxicity in rat assessed as mild white myeloid lymphocytopenia of spleen at 1000 mg/kg, po QD for 14 days; format: organism-based; conditions: in vivo, 336 h, time 14 day
[45] = Microsomal stability in human liver microsomes assessed as intrinsic clearance measured per mg of protein; format: ADME, Microsome; conditions: read-out: CLH
[46] = Oral bioavailability in C57BL/6 mouse at 2 mg/kg; format: ADME, organism-based; conditions: in vivo
[47] = Protein binding in rat plasma assessed as unbound fraction; format: ADME, cell-free
[48] = Clearance in Beagle dog at 1 mg/kg, iv; format: ADME, organism-based, Canis lupus familiaris; conditions: in vivo

## COCCCOc1cc2c(cc1OC)-c1cc(=O)c(C(=O)O)cn1[C@H](C(C)(C)C)CO2
Hepatitis B virus [1]
  Activity: Active
CYP2D6
  IC50: > 50000 nM
CYP2C9
  IC50: > 50000 nM
Hepatitis B virus [2]
  Activity: Dose-Dependent Effect
[3]
  Papp A→B: 1.4 ×10⁻⁶ cm/s
[4]
  Cmax: 1060 nM
Hepatitis B virus [5]
  Activity: Dose-Dependent Effect
Hepatitis B virus [6]
  Activity: Dose-Dependent Effect
[7]
  Papp B→A: 20.4 ×10⁻⁶ cm/s
[8]
  bioavailability: 93.2%
[9]
  half-life: 3.39 h
Hepatitis B virus [10]
  Activity: inactive
Cytochrome P450 3A4
  Activity: Not Active
[11]
  half-life: 2.5 h
[12]
  Cmax: 4850 nM
[13]
  Activity: Non-Toxic
[14]
  Vd: 1.72 L/kg
Hepatitis B virus [15]
  EC50: 28.2 nM
[16]
  half-life: 2 h
Hepatitis B virus [17]
  Activity: Tde
[18]
  Vd: 5.8 L/kg
[19]
  clearance: 28 mL/min/kg
[20]
  Cmax: 659 nM
[21]
  Activity: Not Active
Hepatitis B virus [22]
  Activity: Dose-Dependent Effect
[23]
  AUC(0-t): 26.5 µM·h
Hepatitis B virus [24]
  EC50: 2.6 nM
[25]
  IC50: > 30000 nM
Hepatitis B virus [26]
  Activity: 50%
CYP1A2
  IC50: > 50000 nM
Hepatitis B virus [27]
  EC50: 16 nM
Hepatitis B virus [28]
  Activity: Active
[29]
  Activity: Non-Toxic
[30]
  bioavailability: 71.1%
[31]
  clearance: 75 mL/min/kg
Hepatitis B virus [32]
  EC50: 3.9 nM
Hepatitis B virus [33]
  Activity: Tde
[34]
  microsomal CLint: < 7.5 µL/min/mg
Hepatitis B virus [35]
  Activity: inactive
[36]
  fraction unbound: 0.44
CYP2C19
  IC50: > 50000 nM
[37]
  Activity: Non-Toxic
[38]
  microsomal CLint: < 7.5 µL/min/mg
[39]
  Vd: 1.08 L/kg
[40]
  efflux ratio: 14.1
CYP3A4
  IC50: > 50000 nM
[41]
  microsomal CLint: < 7.5 µL/min/mg
[42]
  microsomal CLint: < 7.5 µL/min/mg
Hepatitis B virus [43]
  Activity: inactive
[44]
  Activity: Toxic
[45]
  microsomal CLint: < 7.5 µL/min/mg
[46]
  bioavailability: 91.6%
[47]
  fraction unbound: 0.414
[48]
  clearance: 4.04 mL/min/kg
